Key:
[1] = Retention time of the compound by supercritical fluid chromatography; type: ADME
[2] = biological target: T1, Peroxisome proliferator-activated receptor gamma (Homo sapiens, UniProt P37231); assay: Agonist activity at PPARgamma ligand binding domain (unknown origin) using fluormone Pan-PPAR green tracer by TR-FRET assay based competitive ligand binding method
T1 sequence (P37231 whole entry): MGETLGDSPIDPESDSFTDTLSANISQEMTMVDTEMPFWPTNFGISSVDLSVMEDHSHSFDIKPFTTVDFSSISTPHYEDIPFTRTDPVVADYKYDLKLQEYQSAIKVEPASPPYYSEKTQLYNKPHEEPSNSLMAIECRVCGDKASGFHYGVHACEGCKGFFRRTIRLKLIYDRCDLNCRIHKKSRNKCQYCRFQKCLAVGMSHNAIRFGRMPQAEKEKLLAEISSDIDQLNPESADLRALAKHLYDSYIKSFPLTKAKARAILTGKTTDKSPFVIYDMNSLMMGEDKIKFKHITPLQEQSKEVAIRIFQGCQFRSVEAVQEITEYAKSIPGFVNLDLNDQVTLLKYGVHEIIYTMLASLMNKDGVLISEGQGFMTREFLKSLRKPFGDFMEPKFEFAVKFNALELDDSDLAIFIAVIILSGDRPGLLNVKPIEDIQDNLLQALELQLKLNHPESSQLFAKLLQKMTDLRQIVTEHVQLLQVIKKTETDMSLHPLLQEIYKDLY

Row | SMILES | Retention_time [1] [min] | IC50 [2] [nM] | Ki [2] [nM]
1 | COc1cc2c(cc1CC=C(C)C)C(=O)C[C@H](c1ccc(O)cc1)O2 | 4.99 | 471 | 169
2 | COc1cc2oc(-c3ccc(O)cc3)cc(=O)c2cc1CC=C(C)C [BAVACHININ] |  | 489 | 176
3 | COc1cc2c(cc1CC=C(C)C)C(=O)C[C@@H](c1ccc(O)cc1)O2 [BAVACHININ A] | 4.4 | 617 | 221

Source: ChEMBL document CHEMBL3425507, “Separation and peroxisome proliferator-activated receptor-γ agonist activity evaluation of synthetic racemic bavachinin enantiomers” (Bioorg Med Chem Lett, 2015)
